Experimental data: ChEMBL document CHEMBL1133937, “New 1-aryl-4-(biarylmethylene)piperazines as potential atypical antipsychotics sharing dopamine D(2)-receptor and serotonin 5-HT(1A)-receptor affinities” (Bioorg Med Chem Lett, 2001)

Assays:
[1] = target: T1, 5-hydroxytryptamine receptor 1A (Homo sapiens, UniProt P08908); test: Binding affinity for 5-hydroxytryptamine 1A receptor determined using [3H]8-OH-DPAT as radioligand
T1 sequence (P08908 whole entry): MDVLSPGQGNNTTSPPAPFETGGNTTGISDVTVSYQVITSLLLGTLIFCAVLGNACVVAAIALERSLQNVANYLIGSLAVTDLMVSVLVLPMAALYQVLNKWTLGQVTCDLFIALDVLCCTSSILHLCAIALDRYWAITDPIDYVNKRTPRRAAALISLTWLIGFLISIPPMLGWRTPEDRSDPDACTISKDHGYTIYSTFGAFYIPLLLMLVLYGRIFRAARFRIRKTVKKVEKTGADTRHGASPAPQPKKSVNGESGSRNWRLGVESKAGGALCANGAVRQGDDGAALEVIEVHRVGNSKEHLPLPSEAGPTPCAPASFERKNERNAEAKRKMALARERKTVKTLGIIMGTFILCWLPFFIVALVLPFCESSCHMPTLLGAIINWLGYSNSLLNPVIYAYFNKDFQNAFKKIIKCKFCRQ

[2] = tested on: Rattus norvegicus; test: In vivo suppression of the conditioned avoidance response (CAR) in rats after po administration of the compound; format: functional
[3] = tested on: Mus musculus; test: In vivo inhibition of the apomorphine-induced climbing behavior in mice; format: functional
[4] = tested on: Rattus norvegicus; test: Tested for occurrence of lower lip retraction in rat after po administration of the compound; format: functional
[5] = tested on: Rattus norvegicus; test: In vivo suppression of the conditioned avoidance response (CAR) in rats after ip administration of the compound; format: functional

Oc1nc2cccc(N3CCN(Cc4cccc(-c5cccc(Cl)c5)c4)CC3)c2o1 was tested, and the Ki [1] was 42 nM.

COc1cccc(-c2cccc(CN3CCN(c4cccc5[nH]c(=O)oc45)CC3)c2)c1 showed a Ki [1] of 21 nM.

c1ccc(-c2cccc(CN3CCN(c4cccc5ccoc45)CC3)c2)cc1 was tested, and the Ki [1] was 38 nM.

Cc1nc2n(c(=O)c1CCN1CCC(c3noc4cc(F)ccc34)CC1)CCCC2 [RISPERIDONE] was tested, and the ED50 [2] was 1 mg/kg and the ED50 [3] was 0.1 mg/kg.

With Oc1nc2cccc(N3CCN(Cc4cccc(-c5ccc(F)cc5)n4)CC3)c2o1 the Ki [1] was 200 nM.

Compound Oc1nc2cccc(N3CCN(Cc4cccc(-c5ccsc5)c4)CC3)c2o1 has an ED50 [4] of over 30 mg/kg, an ED50 [5] of over 20 mg/kg and an ED50 [3] of 0.2 mg/kg. For the same compound, the Ki [1] was 17 nM.

With N#Cc1ccccc1-c1cccc(CN2CCN(c3cccc4nc(O)oc34)CC2)c1 the Ki [1] was 32 nM.

For O=C(CCCN1CCC(O)(c2ccc(Cl)cc2)CC1)c1ccc(F)cc1 [HALOPERIDOL], the ED50 [2] was 0.3 mg/kg and the ED50 [3] was 0.2 mg/kg.

Compound O=C1COc2c(cccc2N2CCN(Cc3cccc(-c4ccccc4)c3)CC2)N1 has a Ki [1] of 49 nM.

Oc1nc2cccc(N3CCN(Cc4cc(-c5ccc(F)cc5)ccn4)CC3)c2o1 was tested, and the ED50 [4] was over 30 mg/kg, the ED50 [2] was under 10 mg/kg and the ED50 [3] was 0.1 mg/kg. For the same compound, the Ki [1] was 16 nM.

c1ccc(-c2cccc(CN3CCN(c4cccc5c4OCCO5)CC3)c2)cc1 showed a Ki [1] of 0.91 nM.

With O=c1[nH]c2cccc(N3CCN(Cc4cccc(-c5cccs5)c4)CC3)c2o1 the Ki [1] was 32 nM.

Work on COc1ccccc1N1CCN(CCNC(=O)c2ccc(F)cc2)CC1 yielded a Ki [1] of 1 nM.

Work on c1ccc(-c2cccc(CN3CCN(c4cccc5c4OCO5)CC3)c2)cc1 yielded a Ki [1] of 15 nM.

O=c1[nH]c2cccc(N3CCN(Cc4ccnc(-c5ccc(F)cc5)c4)CC3)c2o1 was tested, and the Ki [1] was 21 nM.

Oc1nc2cccc(N3CCN(Cc4cncc(-c5ccccc5)c4)CC3)c2o1 gave an ED50 [4] of 3 mg/kg, an ED50 [2] of 0.4 mg/kg and an ED50 [3] of 0.1 mg/kg. It also gave a Ki [1] of 7.8 nM.

With N#Cc1cccc(-c2cccc(CN3CCN(c4cccc5nc(O)oc45)CC3)c2)c1 the Ki [1] was 23 nM.

Work on c1ccc(-c2cccc(CN3CCN(c4cccc5c4OCCN5)CC3)c2)cc1 yielded a Ki [1] of 26 nM.

Work on O=c1[nH]c2cccc(N3CCN(Cc4cccc(-c5ccccc5)c4)CC3)c2o1 [BIFEPRUNOX] yielded an ED50 [4] of 10 mg/kg, an ED50 [2] of 0.8 mg/kg and an ED50 [3] of 0.1 mg/kg. The Ki [1] was 9.3 nM.

With Cc1cccc(-c2cccc(CN3CCN(c4cccc5[nH]c(=O)oc45)CC3)c2)c1 the Ki [1] was 35 nM.

Compound O=C(NCCN1CCN(c2cccc3nc(O)oc23)CC1)c1ccc(F)cc1 has a Ki [1] of 7.9 nM.

Work on Oc1nc2cccc(N3CCN(Cc4ccc(O)c(-c5ccccc5)c4)CC3)c2o1 yielded an ED50 [4] of over 30 mg/kg, an ED50 [5] of 20 mg/kg and an ED50 [3] of 7 mg/kg. For the same compound, the Ki [1] was 7.6 nM.

With Oc1nc2cccc(N3CCN(Cc4cccc(-c5ccc(F)cc5)c4)CC3)c2o1 the Ki [1] was 14 nM.

In the case of Cn1c(=O)oc2c(N3CCN(Cc4cccc(-c5ccccc5)c4)CC3)cccc21, the Ki [1] is reported as 130 nM.

Work on Fc1ccc(-c2ccc(CN3CCN(c4cccc5ccoc45)CC3)[nH]2)cc1 [ELOPIPRAZOLE] yielded a Ki [1] of 1.5 nM.

O=c1[nH]c2cccc(N3CCN(Cc4cc(-c5ccccc5)ccc4F)CC3)c2o1 showed a Ki [1] of 41 nM.

Compound CN1CCN(C2=Nc3cc(Cl)ccc3Nc3ccccc32)CC1 [CLOZAPINE] has an ED50 [2] of 32 mg/kg and an ED50 [3] of 22 mg/kg.

For c1ccc(-c2cccc(CN3CCN(c4cccc5c4CCCN5)CC3)c2)cc1, the Ki [1] was 85 nM.
